In ChEMBL document CHEMBL3991601, “The target landscape of clinical kinase drugs” (Science, 2017):
Calls of active or inactive are those of the source.

Tests used:
[1] = biological target: Glycogen synthase kinase-3 alpha (Homo sapiens, UniProt P49840)
[2] = biological target: Serine/threonine-protein kinase/endoribonuclease IRE1 (Homo sapiens, UniProt O75460)
[3] = biological target: Mitogen-activated protein kinase kinase kinase 4 (Homo sapiens, UniProt Q9Y6R4)
[4] = biological target: T1, Electron transfer flavoprotein subunit beta (Homo sapiens, UniProt P38117)
T1 sequence (P38117 whole entry): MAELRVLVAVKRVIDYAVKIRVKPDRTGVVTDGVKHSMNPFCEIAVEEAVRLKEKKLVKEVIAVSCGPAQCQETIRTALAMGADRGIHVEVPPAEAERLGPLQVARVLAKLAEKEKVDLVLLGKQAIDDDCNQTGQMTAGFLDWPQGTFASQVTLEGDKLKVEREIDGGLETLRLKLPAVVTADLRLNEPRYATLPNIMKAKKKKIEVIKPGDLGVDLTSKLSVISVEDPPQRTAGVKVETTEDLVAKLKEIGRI

[5] = biological target: T2, RNA cytidine acetyltransferase (Homo sapiens, UniProt Q9H0A0)
T2 sequence (Q9H0A0 whole entry): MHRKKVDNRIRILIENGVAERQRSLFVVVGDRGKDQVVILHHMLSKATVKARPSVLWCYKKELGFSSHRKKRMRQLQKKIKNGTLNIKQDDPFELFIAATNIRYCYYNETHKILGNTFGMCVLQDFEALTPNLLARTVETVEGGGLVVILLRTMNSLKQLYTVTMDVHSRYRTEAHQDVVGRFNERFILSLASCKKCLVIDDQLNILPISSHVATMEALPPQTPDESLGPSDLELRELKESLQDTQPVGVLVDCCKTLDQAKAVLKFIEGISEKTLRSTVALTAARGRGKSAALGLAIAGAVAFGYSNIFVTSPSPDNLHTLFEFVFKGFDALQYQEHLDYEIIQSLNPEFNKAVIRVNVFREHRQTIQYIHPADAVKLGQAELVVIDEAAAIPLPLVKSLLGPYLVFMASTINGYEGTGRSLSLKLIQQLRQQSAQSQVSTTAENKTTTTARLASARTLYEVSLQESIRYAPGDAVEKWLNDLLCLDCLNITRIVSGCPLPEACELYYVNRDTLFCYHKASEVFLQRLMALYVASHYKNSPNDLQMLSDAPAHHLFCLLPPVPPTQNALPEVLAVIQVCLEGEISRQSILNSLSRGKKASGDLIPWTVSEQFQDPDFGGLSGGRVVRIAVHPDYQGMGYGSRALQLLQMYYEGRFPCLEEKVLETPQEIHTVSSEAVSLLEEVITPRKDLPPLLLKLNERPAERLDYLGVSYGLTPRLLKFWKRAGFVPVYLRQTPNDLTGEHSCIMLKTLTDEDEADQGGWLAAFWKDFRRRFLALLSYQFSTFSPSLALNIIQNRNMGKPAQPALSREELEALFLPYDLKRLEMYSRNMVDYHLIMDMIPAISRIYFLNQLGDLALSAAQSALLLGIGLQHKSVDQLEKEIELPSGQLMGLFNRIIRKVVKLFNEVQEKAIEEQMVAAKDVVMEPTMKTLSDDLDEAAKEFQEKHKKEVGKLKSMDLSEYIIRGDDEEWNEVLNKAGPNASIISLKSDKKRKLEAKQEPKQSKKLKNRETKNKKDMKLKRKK

[6] = biological target: T3, Serine/threonine-protein kinase STK11 (Homo sapiens, UniProt Q15831)
T3 sequence (Q15831 whole entry): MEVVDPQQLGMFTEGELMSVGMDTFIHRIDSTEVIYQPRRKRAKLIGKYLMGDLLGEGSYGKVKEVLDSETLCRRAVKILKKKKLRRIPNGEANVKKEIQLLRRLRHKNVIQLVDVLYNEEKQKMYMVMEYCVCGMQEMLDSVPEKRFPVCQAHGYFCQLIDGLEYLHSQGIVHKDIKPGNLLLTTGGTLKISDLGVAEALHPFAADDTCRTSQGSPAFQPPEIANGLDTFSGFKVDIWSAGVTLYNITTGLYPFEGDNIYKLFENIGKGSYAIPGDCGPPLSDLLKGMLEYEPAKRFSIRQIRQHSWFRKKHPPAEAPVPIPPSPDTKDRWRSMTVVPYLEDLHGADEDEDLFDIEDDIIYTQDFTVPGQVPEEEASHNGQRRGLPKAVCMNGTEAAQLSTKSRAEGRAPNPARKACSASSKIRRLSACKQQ

[7] = biological target: Bone morphogenetic protein receptor type-1A (Homo sapiens, UniProt P36894)
[8] = biological target: T4, Serine/threonine-protein kinase TAO1 (Homo sapiens, UniProt Q7L7X3)
T4 sequence (Q7L7X3 whole entry): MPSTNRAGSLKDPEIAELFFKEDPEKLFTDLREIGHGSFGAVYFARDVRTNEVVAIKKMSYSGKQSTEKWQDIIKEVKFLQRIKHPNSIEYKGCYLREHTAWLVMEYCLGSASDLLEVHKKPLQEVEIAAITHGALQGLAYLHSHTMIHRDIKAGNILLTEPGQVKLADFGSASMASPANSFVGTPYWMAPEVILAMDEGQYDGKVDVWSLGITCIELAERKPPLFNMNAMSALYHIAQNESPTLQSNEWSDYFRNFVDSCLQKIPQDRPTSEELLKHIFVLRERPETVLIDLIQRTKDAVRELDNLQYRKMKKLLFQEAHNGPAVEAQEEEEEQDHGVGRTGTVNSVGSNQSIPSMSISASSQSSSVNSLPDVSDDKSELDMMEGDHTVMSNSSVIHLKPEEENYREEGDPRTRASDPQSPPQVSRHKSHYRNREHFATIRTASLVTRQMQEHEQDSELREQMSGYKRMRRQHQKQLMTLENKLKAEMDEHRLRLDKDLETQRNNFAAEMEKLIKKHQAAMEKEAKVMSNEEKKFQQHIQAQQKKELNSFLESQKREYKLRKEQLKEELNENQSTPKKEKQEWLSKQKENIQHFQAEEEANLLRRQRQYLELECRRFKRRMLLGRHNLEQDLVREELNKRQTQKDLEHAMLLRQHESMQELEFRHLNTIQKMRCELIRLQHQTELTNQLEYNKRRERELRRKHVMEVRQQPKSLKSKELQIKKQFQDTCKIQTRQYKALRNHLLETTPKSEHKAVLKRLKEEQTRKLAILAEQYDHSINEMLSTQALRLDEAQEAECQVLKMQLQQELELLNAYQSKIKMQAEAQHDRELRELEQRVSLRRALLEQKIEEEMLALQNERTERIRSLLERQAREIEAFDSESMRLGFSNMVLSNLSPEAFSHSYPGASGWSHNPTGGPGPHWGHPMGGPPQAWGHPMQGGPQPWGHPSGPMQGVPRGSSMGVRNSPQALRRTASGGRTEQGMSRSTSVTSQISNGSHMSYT
Note: in the data inactive means no Kd found up to 30 µM.

Sequence of Mitogen-activated protein kinase kinase kinase 4 (Q9Y6R4 whole entry): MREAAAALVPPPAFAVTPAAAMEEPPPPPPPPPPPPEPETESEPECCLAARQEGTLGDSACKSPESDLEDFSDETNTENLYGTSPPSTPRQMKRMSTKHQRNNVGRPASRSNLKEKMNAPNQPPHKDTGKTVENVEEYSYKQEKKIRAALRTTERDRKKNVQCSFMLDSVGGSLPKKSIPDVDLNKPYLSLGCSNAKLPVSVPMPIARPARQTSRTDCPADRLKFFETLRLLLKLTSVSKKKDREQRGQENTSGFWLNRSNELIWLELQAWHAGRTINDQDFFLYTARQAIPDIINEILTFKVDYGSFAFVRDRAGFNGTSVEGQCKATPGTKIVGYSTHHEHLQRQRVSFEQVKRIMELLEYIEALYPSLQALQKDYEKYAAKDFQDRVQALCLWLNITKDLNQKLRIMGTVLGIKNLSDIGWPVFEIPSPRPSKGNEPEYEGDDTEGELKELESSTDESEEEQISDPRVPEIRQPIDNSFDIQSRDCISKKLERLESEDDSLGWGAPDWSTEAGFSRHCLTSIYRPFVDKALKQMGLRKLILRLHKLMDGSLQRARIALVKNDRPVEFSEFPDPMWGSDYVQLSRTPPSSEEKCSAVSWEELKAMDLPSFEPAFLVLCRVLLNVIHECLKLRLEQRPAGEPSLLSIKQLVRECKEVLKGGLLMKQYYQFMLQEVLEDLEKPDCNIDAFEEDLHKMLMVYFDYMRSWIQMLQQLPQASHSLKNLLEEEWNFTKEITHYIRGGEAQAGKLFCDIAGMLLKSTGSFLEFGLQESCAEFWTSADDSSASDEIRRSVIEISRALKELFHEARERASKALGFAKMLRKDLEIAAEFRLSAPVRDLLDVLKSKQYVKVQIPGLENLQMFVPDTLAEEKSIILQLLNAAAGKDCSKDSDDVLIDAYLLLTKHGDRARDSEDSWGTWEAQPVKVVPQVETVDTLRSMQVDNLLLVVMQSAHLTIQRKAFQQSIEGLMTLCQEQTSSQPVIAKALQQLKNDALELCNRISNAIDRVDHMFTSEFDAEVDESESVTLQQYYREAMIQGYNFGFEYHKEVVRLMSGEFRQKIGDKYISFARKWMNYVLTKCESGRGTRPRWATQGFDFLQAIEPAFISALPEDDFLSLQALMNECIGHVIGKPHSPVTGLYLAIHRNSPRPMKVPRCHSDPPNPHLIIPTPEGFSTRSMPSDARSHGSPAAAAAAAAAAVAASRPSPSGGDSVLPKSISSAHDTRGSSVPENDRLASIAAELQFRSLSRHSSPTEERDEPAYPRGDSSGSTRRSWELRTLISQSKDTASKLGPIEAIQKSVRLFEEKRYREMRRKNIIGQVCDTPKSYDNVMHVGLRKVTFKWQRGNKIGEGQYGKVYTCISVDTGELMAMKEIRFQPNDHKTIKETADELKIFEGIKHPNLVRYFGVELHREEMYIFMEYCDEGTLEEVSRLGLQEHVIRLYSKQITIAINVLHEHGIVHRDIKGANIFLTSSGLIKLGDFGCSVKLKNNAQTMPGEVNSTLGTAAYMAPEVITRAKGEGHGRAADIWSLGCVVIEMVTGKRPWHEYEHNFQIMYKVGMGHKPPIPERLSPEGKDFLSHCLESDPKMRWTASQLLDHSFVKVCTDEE
Sequence of Serine/threonine-protein kinase/endoribonuclease IRE1 (O75460 whole entry): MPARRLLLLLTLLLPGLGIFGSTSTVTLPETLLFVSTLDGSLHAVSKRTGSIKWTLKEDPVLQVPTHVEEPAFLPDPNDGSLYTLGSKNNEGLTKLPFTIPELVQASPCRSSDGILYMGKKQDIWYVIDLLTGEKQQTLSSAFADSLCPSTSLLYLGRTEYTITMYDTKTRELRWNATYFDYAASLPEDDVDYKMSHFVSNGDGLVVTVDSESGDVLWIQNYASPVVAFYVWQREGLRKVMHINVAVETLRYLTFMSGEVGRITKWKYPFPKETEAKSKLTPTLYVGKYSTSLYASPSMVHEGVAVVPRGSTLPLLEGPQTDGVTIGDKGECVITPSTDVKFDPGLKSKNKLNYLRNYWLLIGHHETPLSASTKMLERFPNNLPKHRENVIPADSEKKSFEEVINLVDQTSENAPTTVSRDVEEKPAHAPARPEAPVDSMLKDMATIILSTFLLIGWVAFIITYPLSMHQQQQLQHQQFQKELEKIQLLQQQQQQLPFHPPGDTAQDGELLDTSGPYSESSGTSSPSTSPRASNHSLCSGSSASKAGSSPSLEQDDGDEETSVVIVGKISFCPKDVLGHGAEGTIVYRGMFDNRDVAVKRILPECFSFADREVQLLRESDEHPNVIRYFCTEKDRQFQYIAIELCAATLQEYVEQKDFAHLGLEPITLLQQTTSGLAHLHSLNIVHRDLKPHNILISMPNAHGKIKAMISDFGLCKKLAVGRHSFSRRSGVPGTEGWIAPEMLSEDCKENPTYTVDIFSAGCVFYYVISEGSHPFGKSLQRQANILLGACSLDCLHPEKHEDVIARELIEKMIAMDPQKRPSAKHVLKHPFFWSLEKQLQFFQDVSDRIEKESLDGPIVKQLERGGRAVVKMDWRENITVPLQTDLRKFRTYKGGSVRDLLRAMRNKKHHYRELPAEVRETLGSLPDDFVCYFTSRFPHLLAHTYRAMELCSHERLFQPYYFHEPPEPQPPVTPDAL
Sequence of Glycogen synthase kinase-3 alpha (P49840 whole entry): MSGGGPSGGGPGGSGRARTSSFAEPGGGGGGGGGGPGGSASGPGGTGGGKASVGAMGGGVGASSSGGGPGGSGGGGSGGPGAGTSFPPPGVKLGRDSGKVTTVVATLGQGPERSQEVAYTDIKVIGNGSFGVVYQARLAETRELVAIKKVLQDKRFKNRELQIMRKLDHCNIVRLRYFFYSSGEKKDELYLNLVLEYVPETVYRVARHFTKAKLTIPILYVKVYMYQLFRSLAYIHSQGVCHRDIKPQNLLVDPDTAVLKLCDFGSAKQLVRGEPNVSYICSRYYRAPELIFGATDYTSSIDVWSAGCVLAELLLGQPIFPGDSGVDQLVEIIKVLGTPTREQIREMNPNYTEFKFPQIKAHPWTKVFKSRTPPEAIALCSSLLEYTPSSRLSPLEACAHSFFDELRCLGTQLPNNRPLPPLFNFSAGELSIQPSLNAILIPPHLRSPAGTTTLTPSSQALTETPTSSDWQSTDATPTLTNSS
Sequence of Bone morphogenetic protein receptor type-1A (P36894 whole entry): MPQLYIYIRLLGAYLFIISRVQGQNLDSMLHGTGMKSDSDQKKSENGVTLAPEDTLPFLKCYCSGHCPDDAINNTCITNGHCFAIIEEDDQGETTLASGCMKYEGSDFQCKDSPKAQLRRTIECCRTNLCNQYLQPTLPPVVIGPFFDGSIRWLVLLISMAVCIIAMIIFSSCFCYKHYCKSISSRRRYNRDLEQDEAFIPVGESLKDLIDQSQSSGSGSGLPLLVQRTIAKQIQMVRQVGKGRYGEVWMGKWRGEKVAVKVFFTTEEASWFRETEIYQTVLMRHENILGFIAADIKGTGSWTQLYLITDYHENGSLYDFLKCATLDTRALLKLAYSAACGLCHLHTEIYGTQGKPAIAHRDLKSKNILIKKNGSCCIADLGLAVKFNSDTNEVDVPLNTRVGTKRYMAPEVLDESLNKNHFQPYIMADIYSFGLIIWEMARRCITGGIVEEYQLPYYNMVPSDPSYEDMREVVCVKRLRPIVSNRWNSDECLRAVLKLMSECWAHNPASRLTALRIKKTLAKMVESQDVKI

Row | SMILES | Kd [1] | Kd [2] | Kd [3] | Kd [4] | Kd [5] | Kd [6] | Kd [7] | Kd [8]
1 | CCc1cnn2c(NCc3ccc[n+]([O-])c3)cc(N3CCCC[C@H]3CCO)nc12 [DINACICLIB] | 1.47 µM (active) | > 30 µM (inactive) | > 30 µM (inactive) | > 30 µM (inactive) | > 30 µM (inactive) | 0.497 µM (active) | > 30 µM (inactive) | –
2 | O=C1NC(=O)/C(=C/c2ccc3nccc(-c4ccncc4)c3c2)S1 [GSK-1059615] | > 30 µM (inactive) | > 30 µM (inactive) | > 30 µM (inactive) | – | > 30 µM (inactive) | > 30 µM (inactive) | > 30 µM (inactive) | 0.002 µM (active)
3 | CC(C)Nc1cc(-c2c[nH]c(C(=O)N[C@H](CO)c3cccc(Cl)c3)c2)c(Cl)cn1 [ULIXERTINIB] | > 30 µM (inactive) | > 30 µM (inactive) | > 30 µM (inactive) | – | > 30 µM (inactive) | > 30 µM (inactive) | > 30 µM (inactive) | 0.388 µM (active)
4 | COc1cc2nccc(Oc3ccc(NC(=O)NC4CC4)c(Cl)c3)c2cc1C(N)=O [LENVATINIB] | > 30 µM (inactive) | 2.24 µM | > 30 µM (inactive) | > 30 µM (inactive) | > 30 µM (inactive) | > 30 µM (inactive) | – | > 30 µM (inactive)
5 | OCCn1cc(-c2cnc3nnn(Cc4ccc5ncccc5c4)c3n2)cn1 [PF-04217903] | – | > 30 µM (inactive) | > 30 µM (inactive) | > 30 µM (inactive) | > 30 µM (inactive) | > 30 µM (inactive) | > 30 µM (inactive) | –
6 | CN1CCN(c2ccc3nc(-c4c(N)c5c(F)cccc5[nH]c4=O)[nH]c3c2)CC1 [DOVITINIB] | – | – | – | > 30 µM (inactive) | > 30 µM (inactive) | – | – | –
7 | Cc1cc(Nc2cc(N3CCN(C)CC3)nc(/C=C/c3ccccc3)n2)n[nH]1 [ENMD-2076] | – | > 30 µM (inactive) | > 30 µM (inactive) | > 30 µM (inactive) | > 30 µM (inactive) | – | > 30 µM (inactive) | –
8 | CCn1c(=O)c(-c2cc[nH]n2)cc2c(C)nc(N)nc21 [VOXTALISIB] | > 30 µM (inactive) | > 30 µM (inactive) | > 30 µM (inactive) | > 30 µM (inactive) | > 30 µM (inactive) | – | > 30 µM (inactive) | –
9 | Cn1cc(-c2ccc(F)c(C(F)(F)F)c2)nc1C1CCN(c2ncnc3[nH]ncc23)CC1 [LY-2584702] | > 30 µM (inactive) | > 30 µM (inactive) | > 30 µM (inactive) | – | > 30 µM (inactive) | > 30 µM (inactive) | > 30 µM (inactive) | > 30 µM (inactive)
10 | COc1cc(CCc2cc(NC(=O)c3ccc(N4C[C@@H](C)N[C@@H](C)C4)cc3)n[nH]2)cc(OC)c1 [AZD-4547] | > 30 µM (inactive) | > 30 µM (inactive) | > 30 µM (inactive) | – | > 30 µM (inactive) | > 30 µM (inactive) | > 30 µM (inactive) | > 30 µM (inactive)
11 | COc1cc(OC)c(/C=C/S(=O)(=O)Cc2ccc(OC)c(NCC(=O)O)c2)c(OC)c1 [RIGOSERTIB] | > 30 µM (inactive) | > 30 µM (inactive) | > 30 µM (inactive) | – | > 30 µM (inactive) | > 30 µM (inactive) | > 30 µM (inactive) | > 30 µM (inactive)
12 | CCn1c(-c2nonc2N)nc2c(C#CC(C)(C)O)ncc(OC[C@H]3CCCNC3)c21 [GSK-690693] | – | – | – | > 30 µM (inactive) | > 30 µM (inactive) | – | – | –
13 | O=C(Nc1cccc(Cl)c1)Nc1ncc(CCNc2ncnc3ccsc23)s1 [SNS-314] | – | – | > 30 µM (inactive) | > 30 µM (inactive) | > 30 µM (inactive) | > 30 µM (inactive) | > 30 µM (inactive) | –
14 | C1=C/COCc2cc(ccc2OCCN2CCCC2)Nc2nccc(n2)-c2cccc(c2)COC/1 [PACRITINIB] | 5.19 µM (active) | > 30 µM (inactive) | > 30 µM (inactive) | – | > 30 µM (inactive) | 0.003 µM | > 30 µM (inactive) | 2.19 µM (active)
15 | C[C@@H](c1ccc2nccn2c1)n1nnc2ncc(-c3cnn(C)c3)nc21 [SAVOLITINIB] | > 30 µM (inactive) | > 30 µM (inactive) | > 30 µM (inactive) | > 30 µM (inactive) | > 30 µM (inactive) | – | > 30 µM (inactive) | > 30 µM (inactive)
16 | Cc1cn(-c2cc(NC(=O)c3ccc(C)c(Nc4nccc(-c5cccnc5)n4)c3)cc(C(F)(F)F)c2)cn1 [NILOTINIB] | – | – | – | – | > 30 µM (inactive) | – | – | –
17 | Nc1nc(N)c2nc(-c3cccc(O)c3)c(-c3cccc(O)c3)nc2n1 [TG100-115] | – | – | – | – | > 30 µM (inactive) | – | – | –
18 | Cc1nc(N)sc1-c1ccnc(Nc2ccc(N3CCOCC3)cc2)n1 [CYC-116] | – | > 30 µM (inactive) | > 30 µM (inactive) | > 30 µM (inactive) | > 30 µM (inactive) | > 30 µM (inactive) | > 30 µM (inactive) | –
19 | Cc1c(F)cc(C(=O)NC2CC2)cc1-c1ccc(C(=O)NCC(C)(C)C)cn1 [LOSMAPIMOD] | > 30 µM (inactive) | > 30 µM (inactive) | > 30 µM (inactive) | – | > 30 µM (inactive) | > 30 µM (inactive) | > 30 µM (inactive) | > 30 µM (inactive)
20 | Cc1ccc(S(=O)(=O)Nc2nc3ccccc3nc2Nc2ccc3nsnc3c2)cc1 | > 30 µM (inactive) | > 30 µM (inactive) | > 30 µM (inactive) | – | > 30 µM (inactive) | > 30 µM (inactive) | > 30 µM (inactive) | > 30 µM (inactive)
21 | C=CC(=O)N1CCC(Oc2cc3c(Nc4ccc(Cl)c(Cl)c4F)ncnc3cc2OC)CC1 [POZIOTINIB] | > 30 µM (inactive) | > 30 µM (inactive) | > 30 µM (inactive) | – | > 30 µM (inactive) | > 30 µM (inactive) | > 30 µM (inactive) | > 30 µM (inactive)
